ChEMBL document CHEMBL5465560, “Selectivity Literature for EUbOPEN Chemogenomic Library” (2024)

Legend:
[1] = system: Mast/stem cell growth factor receptor Kit (Homo sapiens), P10721 [A829P]; assay: (§1) Selectivity interaction (LanthaScreen Eu Kinase Binding Assay) EUB0001632a KIT; conditions: at 10 µM
[2] = system: Mast/stem cell growth factor receptor Kit (Homo sapiens), P10721 [D816H]; assay: as §1; conditions: at 10 µM
[3] = system: Mast/stem cell growth factor receptor Kit (Homo sapiens), P10721 [D816V]; assay: as §1; conditions: at 10 µM
[4] = system: Mast/stem cell growth factor receptor Kit (Homo sapiens), P10721 [D820E]; assay: as §1; conditions: at 10 µM
[5] = system: Mast/stem cell growth factor receptor Kit (Homo sapiens), P10721 [N822K]; assay: as §1; conditions: at 10 µM
[6] = system: Mast/stem cell growth factor receptor Kit (Homo sapiens), P10721 [T670E]; assay: as §1; conditions: at 10 µM
[7] = system: Mast/stem cell growth factor receptor Kit (Homo sapiens), P10721 [V559D,T670I]; assay: as §1; conditions: at 10 µM
[8] = system: Mast/stem cell growth factor receptor Kit (Homo sapiens), P10721 [V654A]; assay: as §1; conditions: at 10 µM
[9] = system: Mast/stem cell growth factor receptor Kit (Homo sapiens), P10721 [Y823D]; assay: as §1; conditions: at 10 µM
[10] = biological target: Growth hormone secretagogue receptor type 1 (Homo sapiens, UniProt Q92847); assay: Selectivity interaction (Ghrelin receptor binding assay, human recombinant ) EUB0000877a […]
[11] = biological target: Serine/threonine-protein kinase WNK1 (Homo sapiens) (UniProt Q9H4A3); assay: Selectivity interaction (ActivX KiNativ screen (kinase selectivity in THP-1 cell lysates)) EUB0000639a WNK1; assay type: subcellular; conditions: lysate, at 0.04 µM
[12] = biological target: Vascular endothelial growth factor receptor 1 (Homo sapiens) (UniProt P17948); assay: Selectivity interaction (ProQinase) EUB0000171b FLT1
Chain of Vascular endothelial growth factor receptor 1 (Homo sapiens) (P17948 whole entry): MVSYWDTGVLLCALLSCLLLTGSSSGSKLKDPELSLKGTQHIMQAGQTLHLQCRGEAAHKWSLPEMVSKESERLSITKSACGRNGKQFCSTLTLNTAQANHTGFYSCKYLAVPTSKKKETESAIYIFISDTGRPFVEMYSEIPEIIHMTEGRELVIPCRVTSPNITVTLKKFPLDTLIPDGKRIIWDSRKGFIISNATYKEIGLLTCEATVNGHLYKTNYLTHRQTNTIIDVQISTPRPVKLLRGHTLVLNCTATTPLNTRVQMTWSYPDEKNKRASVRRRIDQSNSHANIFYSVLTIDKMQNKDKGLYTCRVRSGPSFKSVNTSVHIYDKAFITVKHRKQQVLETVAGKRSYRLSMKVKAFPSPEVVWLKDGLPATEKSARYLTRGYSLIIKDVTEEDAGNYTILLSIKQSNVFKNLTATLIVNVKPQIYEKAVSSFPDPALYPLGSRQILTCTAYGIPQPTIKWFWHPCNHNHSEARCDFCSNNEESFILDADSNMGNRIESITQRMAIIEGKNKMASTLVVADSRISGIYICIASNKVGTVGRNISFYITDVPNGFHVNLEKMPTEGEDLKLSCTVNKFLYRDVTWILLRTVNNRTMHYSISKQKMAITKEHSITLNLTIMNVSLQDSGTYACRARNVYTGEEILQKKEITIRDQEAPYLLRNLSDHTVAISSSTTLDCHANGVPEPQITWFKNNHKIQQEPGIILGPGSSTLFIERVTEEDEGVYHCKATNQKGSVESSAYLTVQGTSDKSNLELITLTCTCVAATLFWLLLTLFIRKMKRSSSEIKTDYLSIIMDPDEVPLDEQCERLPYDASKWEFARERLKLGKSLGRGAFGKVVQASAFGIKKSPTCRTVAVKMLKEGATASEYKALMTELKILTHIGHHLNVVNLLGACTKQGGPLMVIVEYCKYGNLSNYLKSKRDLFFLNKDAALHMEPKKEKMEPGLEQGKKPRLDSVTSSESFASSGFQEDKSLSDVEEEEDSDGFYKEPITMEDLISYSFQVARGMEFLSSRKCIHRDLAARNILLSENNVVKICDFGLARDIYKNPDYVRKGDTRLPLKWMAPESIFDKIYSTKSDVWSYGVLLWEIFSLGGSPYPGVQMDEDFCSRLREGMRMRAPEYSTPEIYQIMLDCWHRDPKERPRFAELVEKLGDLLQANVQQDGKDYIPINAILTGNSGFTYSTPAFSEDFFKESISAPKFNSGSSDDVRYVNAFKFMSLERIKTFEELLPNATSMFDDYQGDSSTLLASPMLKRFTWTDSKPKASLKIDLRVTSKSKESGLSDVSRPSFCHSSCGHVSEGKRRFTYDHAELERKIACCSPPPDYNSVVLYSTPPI

[13] = system: Platelet-derived growth factor receptor alpha (Homo sapiens), P16234 [D842V]; assay: (§2) Selectivity interaction (ProQinase) EUB0000171b PDGFRA
[14] = system: Platelet-derived growth factor receptor alpha (Homo sapiens), P16234 [T674I]; assay: as §2
Chain of Platelet-derived growth factor receptor alpha (Homo sapiens), P16234 [T674I] (P16234 whole entry T674I): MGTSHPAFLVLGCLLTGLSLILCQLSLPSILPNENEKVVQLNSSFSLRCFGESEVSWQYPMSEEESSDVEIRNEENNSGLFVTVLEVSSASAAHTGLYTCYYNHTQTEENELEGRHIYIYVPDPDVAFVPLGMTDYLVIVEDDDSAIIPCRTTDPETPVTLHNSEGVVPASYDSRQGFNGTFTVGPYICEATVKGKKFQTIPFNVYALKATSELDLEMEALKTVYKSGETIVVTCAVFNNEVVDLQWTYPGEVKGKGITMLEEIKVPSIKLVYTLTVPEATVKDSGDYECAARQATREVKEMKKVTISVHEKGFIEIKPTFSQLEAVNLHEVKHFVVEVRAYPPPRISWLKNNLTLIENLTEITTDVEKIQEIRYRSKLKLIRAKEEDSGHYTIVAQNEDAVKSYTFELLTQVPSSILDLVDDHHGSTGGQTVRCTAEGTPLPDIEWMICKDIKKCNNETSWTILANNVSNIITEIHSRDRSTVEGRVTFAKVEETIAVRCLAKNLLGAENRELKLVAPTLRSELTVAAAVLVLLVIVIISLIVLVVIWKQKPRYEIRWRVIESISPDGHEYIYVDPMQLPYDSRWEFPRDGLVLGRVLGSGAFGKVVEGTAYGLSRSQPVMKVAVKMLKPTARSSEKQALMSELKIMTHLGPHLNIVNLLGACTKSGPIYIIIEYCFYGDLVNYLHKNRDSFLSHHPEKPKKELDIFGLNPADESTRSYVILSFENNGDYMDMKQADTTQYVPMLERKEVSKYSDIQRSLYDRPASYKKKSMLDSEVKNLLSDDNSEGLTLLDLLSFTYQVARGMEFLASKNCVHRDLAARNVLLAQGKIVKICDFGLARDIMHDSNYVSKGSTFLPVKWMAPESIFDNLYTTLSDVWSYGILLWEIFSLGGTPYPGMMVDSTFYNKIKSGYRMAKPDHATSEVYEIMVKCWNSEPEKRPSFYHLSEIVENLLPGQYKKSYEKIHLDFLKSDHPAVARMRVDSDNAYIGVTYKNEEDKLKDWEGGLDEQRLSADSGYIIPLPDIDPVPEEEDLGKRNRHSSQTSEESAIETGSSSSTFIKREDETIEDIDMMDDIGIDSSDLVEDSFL

[15] = system: Platelet-derived growth factor receptor alpha (Homo sapiens), P16234 [V561D]; assay: as §2
[16] = biological target: Platelet-derived growth factor receptor alpha (Homo sapiens, UniProt P16234); assay: as §2
Chain of Platelet-derived growth factor receptor alpha (P16234 whole entry): as the sequence (P16234 whole entry T674I) above, with I674T counted along it

[17] = biological target: T1, Serine/threonine-protein kinase RIO3 (Homo sapiens) (UniProt O14730); assay: Selectivity interaction (KinomeScan (DiscoverX)) EUB0000695a RIOK3; conditions: at 100 nM
T1 sequence (whole entry): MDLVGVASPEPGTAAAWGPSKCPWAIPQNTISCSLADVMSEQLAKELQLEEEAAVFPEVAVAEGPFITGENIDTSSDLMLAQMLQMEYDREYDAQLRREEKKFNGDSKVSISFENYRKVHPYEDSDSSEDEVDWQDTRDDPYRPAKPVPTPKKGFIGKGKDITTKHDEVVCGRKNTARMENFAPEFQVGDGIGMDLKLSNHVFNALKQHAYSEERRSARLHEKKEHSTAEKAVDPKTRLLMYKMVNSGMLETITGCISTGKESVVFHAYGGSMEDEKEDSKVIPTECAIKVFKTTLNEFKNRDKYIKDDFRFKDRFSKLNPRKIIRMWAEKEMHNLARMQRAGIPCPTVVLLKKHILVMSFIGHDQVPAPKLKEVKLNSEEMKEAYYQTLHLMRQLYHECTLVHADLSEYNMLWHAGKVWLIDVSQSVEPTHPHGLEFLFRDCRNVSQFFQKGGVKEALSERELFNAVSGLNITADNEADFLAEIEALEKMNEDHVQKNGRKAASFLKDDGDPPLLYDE

[18] = biological target: T2, Ephrin type-B receptor 3 (Homo sapiens) (UniProt P54753); assay: Selectivity interaction (KinomeScan (DiscoverX)) EUB0000655a EPHB3; conditions: at 10 µM
T2 sequence (whole entry): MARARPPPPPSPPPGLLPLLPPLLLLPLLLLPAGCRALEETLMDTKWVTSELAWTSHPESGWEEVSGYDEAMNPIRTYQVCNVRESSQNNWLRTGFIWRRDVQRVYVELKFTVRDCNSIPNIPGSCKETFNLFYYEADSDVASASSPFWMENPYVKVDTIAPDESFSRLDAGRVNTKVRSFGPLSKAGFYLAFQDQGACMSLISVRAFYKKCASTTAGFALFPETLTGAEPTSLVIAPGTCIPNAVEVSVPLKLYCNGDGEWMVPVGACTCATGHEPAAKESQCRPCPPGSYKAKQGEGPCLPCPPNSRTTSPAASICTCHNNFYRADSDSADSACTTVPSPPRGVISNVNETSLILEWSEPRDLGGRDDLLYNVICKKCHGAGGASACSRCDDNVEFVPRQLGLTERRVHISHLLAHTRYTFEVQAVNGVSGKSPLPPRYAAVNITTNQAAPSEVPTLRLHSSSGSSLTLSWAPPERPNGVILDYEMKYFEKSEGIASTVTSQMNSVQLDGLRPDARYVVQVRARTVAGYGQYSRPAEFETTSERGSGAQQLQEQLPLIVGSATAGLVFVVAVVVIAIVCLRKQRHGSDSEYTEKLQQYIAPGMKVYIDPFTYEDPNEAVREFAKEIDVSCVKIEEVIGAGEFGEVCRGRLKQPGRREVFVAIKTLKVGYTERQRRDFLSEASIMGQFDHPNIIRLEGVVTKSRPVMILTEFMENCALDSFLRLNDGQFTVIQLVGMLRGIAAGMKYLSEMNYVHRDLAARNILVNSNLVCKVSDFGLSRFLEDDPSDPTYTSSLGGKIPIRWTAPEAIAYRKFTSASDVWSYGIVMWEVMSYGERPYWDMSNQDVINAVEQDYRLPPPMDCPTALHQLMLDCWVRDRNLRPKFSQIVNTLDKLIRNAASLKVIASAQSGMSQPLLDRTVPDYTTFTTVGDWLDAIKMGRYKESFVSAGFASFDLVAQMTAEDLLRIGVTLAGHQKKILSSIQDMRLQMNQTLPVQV

[19] = biological target: Activin receptor type-2A (Homo sapiens) (UniProt P27037); assay: Selectivity interaction (KinomeScan (DiscoverX)) EUB0000045b ACVR2A
Chain of Activin receptor type-2A (Homo sapiens) (P27037 whole entry): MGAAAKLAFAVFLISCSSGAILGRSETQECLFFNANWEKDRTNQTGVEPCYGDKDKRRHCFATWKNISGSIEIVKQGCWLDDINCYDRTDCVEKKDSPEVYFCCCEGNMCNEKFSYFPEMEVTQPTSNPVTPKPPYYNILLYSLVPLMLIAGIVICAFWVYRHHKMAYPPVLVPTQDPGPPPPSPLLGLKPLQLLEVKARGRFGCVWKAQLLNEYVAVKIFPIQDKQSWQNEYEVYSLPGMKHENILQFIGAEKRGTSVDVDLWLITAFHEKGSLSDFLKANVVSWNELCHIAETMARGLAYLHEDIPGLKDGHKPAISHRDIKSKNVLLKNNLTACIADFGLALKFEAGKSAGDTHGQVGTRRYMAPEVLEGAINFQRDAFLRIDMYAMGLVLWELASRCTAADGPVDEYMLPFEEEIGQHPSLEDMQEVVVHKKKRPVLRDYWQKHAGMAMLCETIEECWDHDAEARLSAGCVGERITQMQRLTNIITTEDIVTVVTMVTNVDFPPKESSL

[20] = biological target: Fibroblast growth factor receptor 4 (Homo sapiens, UniProt P22455); assay: Selectivity interaction (KinomeScan (DiscoverX)) EUB0000045b FGFR4
Chain of Fibroblast growth factor receptor 4 (P22455 22-802 limits assumed): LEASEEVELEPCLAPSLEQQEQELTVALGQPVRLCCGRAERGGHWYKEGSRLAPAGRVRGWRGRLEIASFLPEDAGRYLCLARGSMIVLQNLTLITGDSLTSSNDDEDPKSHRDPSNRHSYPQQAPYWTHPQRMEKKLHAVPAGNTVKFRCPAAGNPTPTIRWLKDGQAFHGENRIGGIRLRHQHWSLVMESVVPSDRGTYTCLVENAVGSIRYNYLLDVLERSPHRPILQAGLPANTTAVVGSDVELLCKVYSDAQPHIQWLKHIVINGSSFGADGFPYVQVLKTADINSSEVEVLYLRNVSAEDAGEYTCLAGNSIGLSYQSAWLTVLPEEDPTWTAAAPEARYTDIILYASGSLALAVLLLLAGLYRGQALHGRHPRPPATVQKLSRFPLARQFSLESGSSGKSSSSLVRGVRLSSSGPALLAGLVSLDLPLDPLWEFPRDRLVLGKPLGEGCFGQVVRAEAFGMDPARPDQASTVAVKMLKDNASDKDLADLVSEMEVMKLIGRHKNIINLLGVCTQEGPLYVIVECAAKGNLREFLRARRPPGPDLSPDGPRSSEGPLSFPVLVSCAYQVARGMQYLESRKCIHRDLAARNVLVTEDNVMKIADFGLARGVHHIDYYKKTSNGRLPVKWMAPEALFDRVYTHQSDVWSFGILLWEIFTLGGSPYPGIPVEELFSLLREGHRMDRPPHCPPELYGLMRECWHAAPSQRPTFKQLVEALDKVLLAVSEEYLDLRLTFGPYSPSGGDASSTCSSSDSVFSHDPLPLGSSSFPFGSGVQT

[21] = biological target: BDNF/NT-3 growth factors receptor (Homo sapiens) (UniProt Q16620); assay: Selectivity interaction (KinomeScan (DiscoverX)) EUB0000229b NTRK2; conditions: at 10 µM
[22] = biological target: Focal adhesion kinase 1 (Homo sapiens, UniProt Q05397); assay: Selectivity interaction (KinomeScan (DiscoverX)) EUB0000229b PTK2; conditions: at 10 µM
[23] = biological target: Dual specificity protein kinase CLK4 (Homo sapiens, UniProt Q9HAZ1); assay: Selectivity interaction (KinomeScan (DiscoverX)) EUB0000092b CLK4; conditions: at 10 µM

In the case of `Cn1cc(-n2cnc3c(NCc4nc5cc(Cl)c(Cl)cc5[nH]4)nc(N4CCOCC4)nc32)cn1`, the % of inhibition [1] is reported as -25.5%, the % of inhibition [2] is reported as 9.61% and the % of inhibition [3] is reported as -20.9%. It also gave a % of inhibition [4] of -6.81%, a % of inhibition [5] of -18.2% and a % of inhibition [6] of -20.6%. For the same compound, the % of inhibition [7] was 1.44%, the % of inhibition [8] was -40.6% and the % of inhibition [9] was -40.5%.
Work on `CCC(=O)N1CC[C@H](Nc2ncnc3c2CN(c2cnc(OC)c(C(F)(F)F)c2)CC3)C1` [LENIOLISIB] yielded an IC50 [10] of over 30 µM.
Compound `CC[C@@H]1[C@H](F)C(=O)N[C@@H]1COc1nccc2cc(C(N)=O)c(OC)cc12` [ZIMLOVISERTIB] has a % of inhibition [11] of -7.4%.
In the case of `C=CC(=O)Nc1cccc(C(=O)Nc2ccc(Nc3cc(-c4[nH]c(SC)nc4C)ccn3)cc2)c1`, the % of control ([12]; at 1 µM) is reported as 84%, the % of control ([12]; at 5 µM) is reported as 66% and the % of control ([13]; at 1 µM) is reported as 68%. For the same compound, the % of control ([13]; at 5 µM) was 41%, the % of control ([14]; at 1 µM) was 96% and the % of control ([14]; at 5 µM) was 84%. For the same compound, the % of control ([15]; at 1 µM) was 91%, the % of control ([15]; at 5 µM) was 68% and the % of control ([16]; at 1 µM) was 97%. It also gave a % of control ([16]; at 5 µM) of 72%.
With `Cc1cc(F)c(C(=O)Nc2cccc(-c3nncn3C(C)C)n2)cc1-n1cnc(C2CC2)c1` the % of control [17] was 83%.
For `CN(C)CCOc1ccc(-c2nc(-c3ccncc3)c(-c3ccc4c(c3)CC/C4=N\O)[nH]2)cc1`, the % of control [18] was 100%.
`C=CC(=O)Nc1cc(-n2c(=O)ccc3cnc4ccc(-c5ccc(NS(C)(=O)=O)cc5)cc4c32)ccc1C` gave a % of control ([19]; at 1 µM) of 94%, a % of control ([19]; at 10 µM) of 88% and a % of control ([20]; at 1 µM) of 100%. The % of control ([20]; at 10 µM) was 84%.
In the case of `COc1cc(N(C)c2ccnc3ccc(C(F)(F)F)cc23)cc(OC)c1OC`, the % binding [21] is reported as 100% and the % binding [22] is reported as 100%.
For `CCC(=O)N1CCN(c2ccc(-n3c(=O)ccc4cnc5ccc(-c6cnc7ccccc7c6)cc5c43)cc2C(F)(F)F)CC1`, the % of control [23] was 49%.
